Common to all, as to type: functional
Assay [1] has as its target T1, G-protein coupled receptor 6 (Homo sapiens, UniProt P46095). As to the kind of experiment: Inverse agonist activity at rat G-protein GSalpha fused GPR6 (unknown origin) expressed in HEK293 cell membranes assessed as cAMP accumulation pre-incubated for 30 mins by microbeta plate reader based assay. For orientation: cAMP levels reflect the balance of adenylyl cyclase and phosphodiesterase activity.

The subject of assay [2] is Rattus norvegicus. As to the kind of experiment: Reduction in water intake in 24 hrs food-deprived Sprague-Dawley rat assessed as water intake level at 100 umol/kg, po followed by standard chow pellets feeding and measured 6 hrs post dose (reference value: 19.25 to 22.9g).
Assay [3] relates to Rattus norvegicus. As to the kind of experiment: Reduction in water intake in 24 hrs food-deprived Sprague-Dawley rat assessed as water intake level at 100 umol/kg, po followed by standard chow pellets feeding and measured 8 hrs post dose (reference value: 19g).
Assay [4] deals with Rattus norvegicus. Briefly: Reduction in body weight gain in 24 hrs food-deprived Sprague-Dawley rat assessed as body weight at 100 umol/kg, po followed by standard chow pellets feeding and measured 8 hrs post dose (reference value: 19.5g).
For assay [5], the system named is Rattus norvegicus. As to the kind of experiment: Reduction in food intake in 24 hrs food-deprived Sprague-Dawley rat assessed as food intake level at 100 umol/kg, po followed by standard chow pellets feeding and measured 8 hrs post dose (reference value: 14 to 14.5g).
Assay [6] relates to Rattus norvegicus. Briefly: Reduction in food intake in 24 hrs food-deprived Sprague-Dawley rat assessed as food intake level per 2 hrs at 100 umol/kg, po followed by standard chow pellets feeding and measured 8 hrs post dose (reference value: 2 to 2.5g/2 hrs).
The target of assay [7] is T1, G-protein coupled receptor 6. Briefly: Inverse agonist activity at rat G-protein GSalpha fused GPR6 (unknown origin) expressed in HEK293 cell membranes assessed as effect on [35S]GTPgammaS binding pre-incubated for 5 to 10 mins followed by 60 mins incubation in presence of [35S]GTPgammaS by scintillation proximity assay. On the technique in general: Binding of GTPγS marks nucleotide exchange on a G protein.

For assay [8], the system named is Rattus norvegicus. As to the kind of experiment: Reduction in body weight gain in 24 hrs food-deprived Sprague-Dawley rat assessed as body weight gain level at 100 umol/kg, po followed by standard chow pellets feeding and measured 6 hrs post dose (reference value: 19.25 to 20.3g).

The text below walks through data of ChEMBL document CHEMBL3714732, “Small molecule modulators of g protein-coupled receptor six” (2001).

T1 sequence (P46095 whole entry, the tested form may be a part): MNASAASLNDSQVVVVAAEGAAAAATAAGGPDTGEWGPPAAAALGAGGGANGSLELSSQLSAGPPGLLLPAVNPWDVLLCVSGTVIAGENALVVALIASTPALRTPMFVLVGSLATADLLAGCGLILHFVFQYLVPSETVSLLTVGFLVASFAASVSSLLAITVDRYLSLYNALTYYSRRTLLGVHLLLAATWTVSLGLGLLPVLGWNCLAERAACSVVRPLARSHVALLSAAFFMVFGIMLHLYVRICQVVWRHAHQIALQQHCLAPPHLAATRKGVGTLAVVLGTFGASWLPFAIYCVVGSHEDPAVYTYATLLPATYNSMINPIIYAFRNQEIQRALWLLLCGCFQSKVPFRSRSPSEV

Turning to `O=C(/N=C1\SSC2=NCCN21)c1cc2ccccc2s1`, the results for the IC50 in assay [1] and in assay [7] were 190 nM and 130 nM, respectively. In addition, the Activity is on record as 20 g in the assay on Rattus norvegicus [2]; 19 g in the assay on Rattus norvegicus [3]; 14 g in the assay on Rattus norvegicus [4]; 9.6 g in the assay with Rattus norvegicus [5]; 1 g in the assay on Rattus norvegicus [6].

With `O=C(/N=C1\SSC2=NCCN21)c1ccc2ccccc2c1`, the IC50 in assay [1] and in assay [7] was 170 nM in each case. Also, the Activity with Rattus norvegicus [3] is 4 g; in the assay on Rattus norvegicus [4], 11 g; with Rattus norvegicus [5], 9 g; in the assay with Rattus norvegicus [6], 1 g; with Rattus norvegicus [8], 11 g.

For the compound `CC(C)(C)c1ccc(C(=O)NC(=S)N2CCNC2=S)cc1`, the IC50 in assay [7] worked out at 200000 nM.

As to `O=C(NC(=S)N1CCNC1=S)c1cccc2ccccc12`, the IC50 in assay [7] was 200000 nM.

On to `COc1ccc(C(=O)/N=C2\SSC3=NCCN32)cc1`, for which the results for the IC50 in assay [1] and in assay [7] were 210 nM and 830 nM, respectively.

Turning to `O=C(/N=C1\SSC2=NCCN21)c1ccc(Cl)cc1`, the figures for the IC50 in assay [1] and in assay [7] were 270 nM and 640 nM, respectively. The Activity in the assay on Rattus norvegicus [2] is 18.5 g; in the assay on Rattus norvegicus [5] it was 9.88 g; in the assay with Rattus norvegicus [8], 11.4 g.

For the compound `O=C(NC(=S)N1CCNC1=S)c1ccc2ccccc2c1`, the results for the Activity in the assay with Rattus norvegicus [3], in the assay with Rattus norvegicus [4] and in the assay on Rattus norvegicus [6] were 19 g, 19.5 g and 2.5 g, respectively.

For `O=C(NC(=S)N1CCNC1=S)c1ccccc1F`, in assay [1], the IC50 amounted to 200000 nM.

Take `O=C(/N=C1\SSC2=NCCN21)c1ccc(C(F)(F)F)cc1`: the IC50 in assay [1] is 170 nM; in assay [7], 570 nM.

Regarding `O=C(/N=C1\SSC2=NCCN21)c1ccno1`, the values for the IC50 in assay [1] and in assay [7] were 100 nM and 330 nM, respectively.

Turning to `Cc1noc(C)c1C(=O)/N=C1\SSC2=NCCN21`, the IC50 stood at 350 nM in assay [1] and 460 nM in assay [7].

With `Cc1onc(-c2ccccc2)c1C(=O)/N=C1\SSC2=NCCN21`, the IC50 in assay [7] came to 2460 nM.

For `O=C(NC(=S)N1CCNC1=S)c1cnn(-c2ccc(Cl)cc2)c1C(F)(F)F`, the IC50 in assay [1] and in assay [7] was 200000 nM each time.

As a reminder, the IC50 is the midpoint of a concentration-inhibition curve.
